#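 Grown in 96-well plates, cells were treated for 48 hours with each compound at five concentrations. Insufficient inhibition: endpoint recorded as highest concentration tested. GI50: concentration for 50% inhibition of growth. Definition used: TGI = concentration required for complete inhibition of growth.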
# Experiments:
# Test in all cases: NCI anticancer screen, dose series, 48 h
# [1] = tested on: SF-268 CNS
# [2] = tested on: TK-10 renal
# [3] = tested on: MCF7 breast
# [4] = tested on: NCI-H460 lung
# [5] = tested on: RPMI-8226 leukemia
# [6] = tested on: A498 renal
# [7] = tested on: NCI-H23 lung
# [8] = tested on: BT-549 breast
# [9] = tested on: COLO 205 colon
# [10] = tested on: T-47D breast
# [11] = tested on: DU-145 prostate
# [12] = tested on: SK-OV-3 ovarian
# [13] = tested on: OVCAR-3 ovarian
# [14] = tested on: IGROV1 ovarian
# [15] = tested on: M14 melanoma
# [16] = tested on: NCI-H226 lung
# [17] = tested on: SNB-19 CNS
# [18] = tested on: RXF 393 renal
# [19] = tested on: CCRF-CEM leukemia
# [20] = tested on: HCT-116 colon
# [21] = tested on: NCI/ADR-RES ovarian
# [22] = tested on: MDA-MB-231 breast
# [23] = tested on: HOP-62 NSCLC
# [24] = tested on: HOP-92 NSCLC
# [25] = tested on: KM12 colon
# [26] = tested on: A549 NSCLC
# [27] = tested on: UACC-62 melanoma
# [28] = tested on: HS 578T breast
# [29] = tested on: SR leukemia
structure (smiles),measurement,setting,value
Cc1cc(OCc2n[nH]c(=S)n2/N=C/c2ccc(F)cc2)ccc1Cl,GI50,[1],30 µM
same,TGI,[1],86.7 µM
same,GI50,[2],19.1 µM
same,TGI,[2],58 µM
same,GI50,[3],33.1 µM
same,TGI,[3],> 100 µM
same,GI50,[4],28.6 µM
same,TGI,[4],> 100 µM
same,GI50,[5],16.7 µM
same,TGI,[5],40.1 µM
same,GI50,[6],25.1 µM
same,TGI,[6],68.3 µM
same,GI50,[7],29.8 µM
same,TGI,[7],94 µM
same,GI50,[8],48 µM
same,TGI,[8],> 100 µM
same,GI50,[9],15.9 µM
same,TGI,[9],35.8 µM
same,GI50,[10],20.5 µM
same,TGI,[10],57.3 µM
same,GI50,[11],56.7 µM
same,TGI,[11],> 100 µM
same,GI50,[12],31.7 µM
same,TGI,[12],82.3 µM
same,GI50,[13],22.9 µM
same,TGI,[13],49.4 µM
same,GI50,[14],25.4 µM
same,TGI,[14],82.3 µM
same,GI50,[15],29 µM
same,TGI,[15],> 100 µM
same,GI50,[16],22.4 µM
same,TGI,[16],54.7 µM
same,GI50,[17],27.8 µM
same,TGI,[17],83.8 µM
same,GI50,[18],22.4 µM
same,TGI,[18],46.8 µM
same,GI50,[19],25.7 µM
same,TGI,[19],70.2 µM
same,GI50,[20],23.3 µM
same,TGI,[20],53.1 µM
same,GI50,[21],29.3 µM
same,TGI,[21],87.3 µM
same,GI50,[22],23.4 µM
same,TGI,[22],62.5 µM
same,GI50,[23],81 µM
same,TGI,[23],> 100 µM
same,GI50,[24],32.6 µM
same,TGI,[24],> 100 µM
same,GI50,[25],22.1 µM
same,TGI,[25],53.8 µM
same,GI50,[26],26.6 µM
same,TGI,[26],68.6 µM
same,GI50,[27],20.1 µM
same,TGI,[27],41.8 µM
same,GI50,[28],56.6 µM
same,TGI,[28],> 100 µM
same,GI50,[29],18.5 µM
